Literature values, collected in patent US7342124B2, “Synthetic techniques and intermediates for polyhydroxy dienyl lactones and mimics thereof” (The Trustees Of The University Of Pennsylvania, priority 2003, dated 2008).

Key:
[1] = system: two-way mixed-lymphocyte reaction; details: in vitro
[2] = system: murine splenocytes; details: in vitro
[3] = system: graft-vs.-host splenomegaly response; details: induced by injection of parental splenocytes into F1 recipient mice
[4] = system: cell development (M phase); details: by binding and stabilizing mitotic spindle microtubules
[5] = system: mitotic spindle microtubules; details: compared with taxol

SMILES: C=C/C=C\[C@H](C)[C@H](OC(N)=O)[C@@H](C)[C@H](O)[C@@H](C)C/C(C)=C\[C@H](C)[C@@H](O)[C@@H](C)/C=C\[C@@H](O)C[C@@H]1OC(=O)[C@H](C)[C@@H](O)[C@H]1C [(+)-discodermolide]
- suppression of two-way mixed-lymphocyte reaction [1]: suppresses
- associated cytotoxicity ([2]; at suppression of mixed-lymphocyte reaction and concanavalin A-induced mitogenesis): no associated cytotoxicity
- suppression of concanavalin A-induced mitogenesis ([2]; murine splenocytes): suppresses
- suppression of graft-vs.-host splenomegaly response, relative potency [3]: potency intermediate between those of cyclosporin A and FK506
- cell cycle arrest [4]: arrests cell development at the M phase
- microtubule binding affinity relative to taxol [5]: much higher
